Values of other authors in PMC9516332 (Frontiers in Oncology, 2022).
Where two headings read alike, the source gives them in different places.

What was measured:
Conditions in all cases: cited from earlier work
[1] = target: T1, panel of 255 wild-type kinases (Homo sapiens, UniProt Q96KB5)
T1 sequence (Q96KB5 1-322): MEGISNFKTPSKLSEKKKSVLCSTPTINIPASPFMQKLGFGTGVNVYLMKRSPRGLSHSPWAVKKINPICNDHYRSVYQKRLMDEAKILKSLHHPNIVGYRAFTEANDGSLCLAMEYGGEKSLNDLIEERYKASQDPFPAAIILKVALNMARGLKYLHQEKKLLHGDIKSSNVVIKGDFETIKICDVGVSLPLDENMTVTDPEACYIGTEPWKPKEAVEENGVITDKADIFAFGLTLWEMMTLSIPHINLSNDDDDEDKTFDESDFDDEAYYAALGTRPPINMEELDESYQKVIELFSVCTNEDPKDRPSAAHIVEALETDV

[2] = target: T2, panel of 255 wild-type kinases (Homo sapiens, UniProt Q96PY6)
T2 sequence (Q96PY6 1-1258): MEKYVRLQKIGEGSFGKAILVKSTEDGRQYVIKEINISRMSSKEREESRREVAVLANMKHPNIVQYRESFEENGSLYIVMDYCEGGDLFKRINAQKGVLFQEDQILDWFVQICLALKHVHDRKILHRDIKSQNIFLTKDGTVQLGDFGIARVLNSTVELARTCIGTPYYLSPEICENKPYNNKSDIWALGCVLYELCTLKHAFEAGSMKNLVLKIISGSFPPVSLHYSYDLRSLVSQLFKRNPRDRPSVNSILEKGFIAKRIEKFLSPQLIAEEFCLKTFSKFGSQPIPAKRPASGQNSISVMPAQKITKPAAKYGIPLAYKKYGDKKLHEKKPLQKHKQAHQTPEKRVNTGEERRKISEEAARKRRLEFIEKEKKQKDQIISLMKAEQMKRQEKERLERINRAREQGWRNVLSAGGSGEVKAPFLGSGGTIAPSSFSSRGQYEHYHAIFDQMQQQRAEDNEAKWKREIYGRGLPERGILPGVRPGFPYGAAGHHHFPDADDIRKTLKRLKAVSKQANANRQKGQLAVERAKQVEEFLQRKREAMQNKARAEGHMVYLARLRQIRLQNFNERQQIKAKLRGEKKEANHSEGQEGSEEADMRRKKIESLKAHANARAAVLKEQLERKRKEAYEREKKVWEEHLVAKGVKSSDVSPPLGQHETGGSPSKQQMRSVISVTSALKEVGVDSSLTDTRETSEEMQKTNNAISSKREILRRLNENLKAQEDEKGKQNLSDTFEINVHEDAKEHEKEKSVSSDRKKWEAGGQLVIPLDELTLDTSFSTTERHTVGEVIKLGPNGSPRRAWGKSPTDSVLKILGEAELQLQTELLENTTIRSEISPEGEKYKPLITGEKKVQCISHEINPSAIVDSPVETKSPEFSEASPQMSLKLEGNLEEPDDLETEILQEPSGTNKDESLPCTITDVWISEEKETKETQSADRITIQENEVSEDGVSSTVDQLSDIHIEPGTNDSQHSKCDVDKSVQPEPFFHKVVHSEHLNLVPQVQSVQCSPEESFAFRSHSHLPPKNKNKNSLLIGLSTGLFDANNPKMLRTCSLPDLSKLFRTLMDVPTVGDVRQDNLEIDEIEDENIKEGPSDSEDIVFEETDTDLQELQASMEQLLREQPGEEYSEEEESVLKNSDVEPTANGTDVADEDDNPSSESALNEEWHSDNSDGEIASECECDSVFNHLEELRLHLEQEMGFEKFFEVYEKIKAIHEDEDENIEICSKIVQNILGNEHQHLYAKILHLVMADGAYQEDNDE

[3] = target: T3, panel of 255 wild-type kinases (Homo sapiens, UniProt Q9NRM7)
T3 sequence (Q9NRM7 1-1088): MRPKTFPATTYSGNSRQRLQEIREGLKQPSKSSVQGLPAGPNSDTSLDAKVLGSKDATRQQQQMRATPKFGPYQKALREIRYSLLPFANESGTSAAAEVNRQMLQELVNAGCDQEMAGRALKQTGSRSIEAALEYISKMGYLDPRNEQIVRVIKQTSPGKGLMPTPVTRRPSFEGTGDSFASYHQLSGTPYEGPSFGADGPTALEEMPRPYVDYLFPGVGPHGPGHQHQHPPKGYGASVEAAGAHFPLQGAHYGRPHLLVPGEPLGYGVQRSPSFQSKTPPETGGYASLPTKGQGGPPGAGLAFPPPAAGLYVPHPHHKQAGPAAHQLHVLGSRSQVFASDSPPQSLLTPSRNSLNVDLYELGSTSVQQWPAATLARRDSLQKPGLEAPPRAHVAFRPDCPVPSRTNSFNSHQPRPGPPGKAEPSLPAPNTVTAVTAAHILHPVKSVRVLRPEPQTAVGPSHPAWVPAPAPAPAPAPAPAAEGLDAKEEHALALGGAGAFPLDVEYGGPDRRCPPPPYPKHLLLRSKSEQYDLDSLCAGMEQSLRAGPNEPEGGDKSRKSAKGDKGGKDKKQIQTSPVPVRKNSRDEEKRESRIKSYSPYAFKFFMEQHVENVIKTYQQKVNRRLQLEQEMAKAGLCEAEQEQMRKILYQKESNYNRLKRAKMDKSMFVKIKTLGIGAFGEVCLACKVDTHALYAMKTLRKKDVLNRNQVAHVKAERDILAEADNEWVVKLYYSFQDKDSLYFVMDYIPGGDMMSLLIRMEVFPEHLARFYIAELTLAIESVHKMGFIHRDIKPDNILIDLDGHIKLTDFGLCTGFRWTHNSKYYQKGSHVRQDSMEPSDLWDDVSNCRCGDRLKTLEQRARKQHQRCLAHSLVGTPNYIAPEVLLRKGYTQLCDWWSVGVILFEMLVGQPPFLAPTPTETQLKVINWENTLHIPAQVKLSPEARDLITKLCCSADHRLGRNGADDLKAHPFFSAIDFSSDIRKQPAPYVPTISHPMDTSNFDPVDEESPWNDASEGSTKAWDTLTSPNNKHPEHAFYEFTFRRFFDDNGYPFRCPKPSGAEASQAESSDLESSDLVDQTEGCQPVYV

[4] = kinase PBK, 1 µmol/L single concentration, ref DOI: 10.1158/1535-7163.MCT-18-0877
[5] = NEK1, 1 µmol/L single concentration, ref DOI: 10.1158/1535-7163.MCT-18-0877
[6] = kinase LATS2, 1 µmol/L single concentration, ref DOI: 10.1158/1535-7163.MCT-18-0877
[7] = kinase PBK, 1 µmol/L single concentration, ref DOI: 10.1371/journal.pone.0092146
[8] = NEK1, 1 µmol/L single concentration, ref DOI: 10.1371/journal.pone.0092146
[9] = kinase LATS2, 1 µmol/L single concentration, ref DOI: 10.1371/journal.pone.0092146

SMILES | %-inhibition at 1 µmol/L, PBK [1, 4] [%] | %-inhibition, NEK1 [2, 5] [%] | %-inhibition at 1 µmol/L, LATS2 [3, 6] [%] | %-inhibition at 1 µmol/L, PBK [1, 7] [%] | %-inhibition, NEK1 [2, 8] [%] | %-inhibition at 1 µmol/L, LATS2 [3, 9] [%] | other results
CC#CC(=O)N1CCC[C@H]1c1nc(-c2ccc(C(=O)Nc3ccccn3)cc2)c2c(N)nccn12 [acalabrutinib] | -15 | -7.46 | -7.45 | – | – | – | –
CCc1cc2c(cc1N1CCC(N3CCOCC3)CC1)C(C)(C)c1[nH]c3cc(C#N)ccc3c1C2=O [alectinib] | -2.63 | 5 | 1.69 | – | – | – | –
COc1cc(N2CCC(N3CCN(C)CC3)CC2)ccc1Nc1ncc(Cl)c(Nc2ccccc2P(C)(C)=O)n1 [brigatinib] | – | – | – | – | – | – | %-inhibition at 1 µmol/L, PBK [1]: 1.09%; %-inhibition, NEK1 [2]: 8%; %-inhibition at 1 µmol/L, LATS2 [3]: 49%
Cc1cc(Nc2ncc(Cl)c(Nc3ccccc3S(=O)(=O)C(C)C)n2)c(OC(C)C)cc1C1CCNCC1 [ceritinib] | -11 | -1.68 | 2.29 | – | – | – | –
O=C(c1ccc(F)c(F)c1Nc1ccc(I)cc1F)N1CC(O)([C@@H]2CCCCN2)C1 [cobimetinib] | 76 | 4.29 | 1.46 | – | – | – | –
C[C@@H](Oc1cc(-c2cnn(C3CCNCC3)c2)cnc1N)c1c(Cl)ccc(F)c1Cl [crizotinib] | – | – | – | -14 | 2.24 | -6 | –
CC(C)(C)c1nc(-c2cccc(NS(=O)(=O)c3c(F)cccc3F)c2F)c(-c2ccnc(N)n2)s1 [dabrafenib] | – | – | – | 12 | 24 | 0.57 | –
C=CC(=O)N1CCC[C@@H](n2nc(-c3ccc(Oc4ccccc4)cc3)c3c(N)ncnc32)C1 [ibrutinib] | -9 | 3.73 | 5.45 | – | – | – | –
CO[C@@H]1[C@H](N(C)C(=O)c2ccccc2)C[C@H]2O[C@]1(C)n1c3ccccc3c3c4c(c5c6ccccc6n2c5c31)C(=O)NC4 [midostaurin] | -7 | 13 | 86 | – | – | – | –
C=CC(=O)Nc1cc(Nc2nccc(-c3cn(C)c4ccccc34)n2)c(OC)cc1N(C)CCN(C)C [osimertinib] | 77 | 2.43 | 5 | – | – | – | –
CC(=O)Nc1cccc(-n2c(=O)n(C3CC3)c(=O)c3c(Nc4ccc(I)cc4F)n(C)c(=O)c(C)c32)c1 [trametinib] | – | – | – | -3.79 | -5 | 1.87 | –
CCCS(=O)(=O)Nc1ccc(F)c(C(=O)c2c[nH]c3ncc(-c4ccc(Cl)cc4)cc23)c1F [vemurafenib] | – | – | – | -12 | -2.74 | -2.28 | –
